Experimental data as given in patent US20100210611A1, “COMBINATION THERAPY” (priority 2007, published 2010).
Where “and” joins values, the source holds several entries; their conditions need not be identical. Identical values can stand only once.

Tests used:
Type in all cases: physicochemical
[1] = Blend uniformity (individual capsule assay); conditions: HPLC, Mean ± RSD
Experimental: To assess blend uniformity, capsules from each blend were opened and rinsed with methanol. The solution was sonicated for 5 minutes at room temperature, centrifuged at 3000 rpm for 15 minutes then assayed using a UV-VIS spectrophotometer at a wavelength of 346 nm. […]
To assess blend uniformity, the blend was sampled randomly from the glass vial. The drugs were extracted analogous to that described in section Blend Uniformity for Example 1. However, the content of montelukast acid and mometasone furoate were analyzed by High Performance Liquid Chromatography (HPLC) employing a phenyl column with a controlled temperature of 50° C., a mixture of water containing 0.2% trifluoroacetic acid (TFA) and acetonitrile containing 0.2% TFA (53:47) as the mobile phase at a flow rate 2 ml/min and UV-detection at 248 nm.
The blend uniformity was assessed in a manner analogous to that described in the Blend Uniformity section in Example 4, except the content of montelukast acid and ciclesonide were analyzed by High Performance Liquid Chromatography (HPLC) employing a phenyl column with a controlled temperature of 50° C., a mixture of water containing 0.2% trifluoroacetic acid (TFA) and acetonitrile containing 0.2% TFA (40:60) at a flow rate 2 ml/min and UV-detection at 248 nm.

[2] = Aerodynamic particle size distribution, Andersen cascade impaction (ACI); conditions: Spinhaler; for MMAD: cutoff diameter based on airflow rate of 28.3 L/min; for amount in ACI: including mouthpiece adapter
Source text: The Andersen cascade impaction (ACI) (Apparatus 3) was the device used to determine the aerodynamic size distribution. The impaction provided in vitro measurements of the fraction of the aerosol that has the potential to reach the alveolar region of the lung. This value is represented by the portion of particles detected below plate 2. The impaction was operated at the flow rate and test time according to the method described in USP <601>. Because the Spinhaler® is a low resistance device, it is difficult to achieve a pressure drop of 4 kPa, an adjustment of the air flow rate at the intake of the flow control was performed, as discussed above. Each impaction plate was coated with silicone grease (316 Dow Corning) to prevent particles from bouncing off the plates and returning to the air stream. All stages were used since the test flow rate was less than 60 L/min. All pieces of the impaction including the inhaler and capsule were rinsed with solvent, diluted to suitable volumes, sonicated, centrifuged and assayed using the UV-VIS spectrophotometer. The respirable portion was quantified by the in vitro fine particle fraction and fine particle mass. Dose uniformity and cascade impaction tests were carried out at controlled temperature (20-25° C.) and humidity (50% RH). […]
Aerodynamic size distribution was performed according to USP Chapter <601> by using ACI Apparatus 3 with the Spinhaler® device analogous to that described in section Aerodynamic Particle Size Distribution for Example 1. However, the HPLC was used to analyze the content of the drugs as described in the Blend Uniformity in this example.
Aerodynamic size distribution was performed according to USP Chapter <601> by using ACI Apparatus 3 with the Spinhaler® device in a manner analogous to that described in section Aerodynamic Particle Size Distribution in Example 4. The content of the drugs were analyzed as described in the Blend Uniformity in this example.

[3] = Dose uniformity, Dosage Unit Sampling Apparatus (DUSA), USP <601>; conditions: Spinhaler; for Total recovered / amount in Device + Capsule: listed as MOM; for amount in Device + Capsule: nominal 1000 μg MON, 400 μg MOM
Experimental: Dose uniformity was determined using Apparatus B (Dosage Unit Sampling Apparatus—DUSA) at a flow rate of 100 L/min (test described in United States Pharmacopoeia (USP) 27 Chapter <601>). The USP recommends selecting a flow rate that creates a pressure drop of 4 kPa across the inhaler. With the Spinhaler, a 4 kPa pressure drop could not be achieved even at the maximum flow rate of 100 L/min. Based on the recommendations of Byron, et al., a flow rate of 100 L/min was selected since the Spinhaler is a low resistance device. See Michael Hindle and Peter R. Byron, “Dose emissions from marketed dry powder inhalers”, International Journal of Pharmaceutics 116 (1995) 169-177. The test was run for 2.4 seconds in order to pull 4 L of air. After a shot had been delivered, all pieces of the DUSA including the mouthpiece adapter were rinsed with solvent. To determine the amount of drug retained in the inhaler, all pieces of the inhaler were rinsed with solvent including the interior of the capsule. The samples were then assayed using the UV-Vis spectrophotometer.
Shot weight was obtained by measuring the weight loss due to the actuation of the device. The device was tared, a “shot” was wasted in the DUSA and the device was re-weighed to obtain the delivered shot weight. Dose and shot weight were deemed acceptable if they were within 75% to 125% of the theoretical values (USP <601>).
(§1) Dose Uniformity (DU) was performed according to USP Chapter <601> by using DUSA Apparatus B with the Spinhaler® device which is analogous to that described in section Dose Uniformity for Example 1. However, the HPLC was used to analyze the content of the drugs as described in the Blend Uniformity in this example.
as §1, with “Uniformity” for “Uniformity (DU)”, “device and in a manner” for “device which is”, “Uniformity in” for “Uniformity for”, “Example 4, except” for “Example 1. However,”

[4] = Particle size of unmilled and jet milled API
[5] = Moisture and light sensitivity
[6] = Example 5 blend, listed as ciclesonide
[7] = Milled API, Microtrac data, after sonication for 60 seconds
[8] = Unmilled API, optical microscopy
[9] = Example 4 blend, listed as mometasone furoate
[10] = Example 4 blend, flow 61.5 L/min for 3.9 sec
[11] = Example 4 blend, flow 62.3 L/min for 3.9 sec
[12] = Example 4 blend, flow 62.8 L/min for 3.8 sec

CC(C)C(=O)OCC(=O)[C@@]12O[C@H](C3CCCCC3)O[C@@H]1C[C@H]1[C@@H]3CCC4=CC(=O)C=C[C@]4(C)[C@H]3[C@@H](O)C[C@@]12C [Ciclesonide, ciclesonide]
Amount Recovered (μg/Capsule) ([1]; Example 5 blend (montelukast acid 4%, ciclesonide 0.64%)): 150.9 µg and 146.7 µg and 157.6 µg | Amount Recovered (μg/Capsule) ([1]; Example 5 blend (montelukast acid 4%, ciclesonide 0.64%), mean of three capsules): 151.1 ± 3.3 µg | Amount Recovered, % ([1]; Example 5 blend): 93.3% and 93.7% and 92.5% | Amount Recovered, % ([1]; Example 5 blend, mean of three capsules): 93.2 ± 0.6% | FPD ([2]; Example 5 blend): 33.6 µg and 31.1 µg and 41.4 µg | FPF ([2]; Example 5 blend): 30.6% and 29.1% and 33.9% | GSD ([2]; Example 5 blend): 1.7 and 1.5 | Total recovered ([2]; Example 5 blend): 177 µg and 160 µg and 178 µg | amount in inhaler ([2]; Example 5 blend): 67 µg and 53 µg and 56 µg | MMAD ([2]; Example 5 blend): 3.6 μm and 3.8 μm | MMAD [2, 6]: 3.7 μm | MMAD ([2]; Example 5 blend, mean): 3.7 μm | amount in ACI ([2]; Example 5 blend): 110 µg and 107 µg and 122 µg | amount in ACI ([2]; Example 5 blend, mean): 113 µg | FPF [2, 6]: 31% | FPD ([2]; Example 5 blend, mean): 35.5 µg | FPF ([2]; Example 5 blend, mean): 31.2% | GSD ([2]; Example 5 blend, mean): 1.6 | Total recovered ([2]; Example 5 blend, mean): 172 µg | amount in inhaler ([2]; Example 5 blend, mean): 59 µg | DU based on nominal dose, % (Device + Capsule) ([3]; Example 5 blend): 35.2% | DU based on nominal dose, % (printed in Adapter + Filter column) ([3]; Example 5 blend): 61.7% | DU based on total recovered, % (Device + Capsule) ([3]; Example 5 blend): 36.3% | DU based on total recovered, % (printed in Adapter + Filter column) ([3]; Example 5 blend): 63.7%

O=C(NC1CC1)c1cn(-c2cccc(C#Cc3ccc[n+]([O-])c3)c2)c2ncccc2c1=O [Compound X, N-cyclopropyl-1-[3-(1-oxido-3-pyridinylethynyl)phenyl]-1,4-dihydro[1,8]-naphthyridin-4-one-3-carboxamide]
Particle size, 95% ([4]; Milled API, Aerosizer data): 7.832 microns | Particle size, Mean ([4]; Milled API, Aerosizer data): 2.832 microns | Particle size, 95% [4, 7]: 4.577 microns | Particle size, Mean [4, 7]: 2.794 microns | Particle size, 95% [4, 8]: 37 microns | Particle size, Mean [4, 8]: 11 microns | moisture and light sensitivity [5]: moisture sensitive and photosensitive

C[C@@H]1C[C@H]2[C@@H]3CCC4=CC(=O)C=C[C@]4(C)[C@@]3(Cl)[C@@H](O)C[C@]2(C)[C@@]1(OC(=O)c1ccco1)C(=O)CCl [Mometasone Furoate, mometasone furoate]
Amount Recovered (μg/Capsule) ([1]; Example 4 blend (montelukast acid 4%, mometasone furoate 1.6%)): 386.8 µg and 371.6 µg and 389.5 µg | Amount Recovered (μg/Capsule) ([1]; Example 4 blend (montelukast acid 4%, mometasone furoate 1.6%), mean): 382.6 ± 2.6 µg | Amount Recovered, % ([1]; Example 4 blend): 93.9% and 93.5% and 95.8% | Amount Recovered, % ([1]; Example 4 blend, mean): 94.4 ± 1.4% | FPD ([2]; Example 4 blend): 43.5 µg and 53.9 µg and 41.8 µg | FPF ([2]; Example 4 blend): 21.0% and 22.7% and 22.1% | GSD ([2]; Example 4 blend): 1.5 | Total recovered ([2]; Example 4 blend): 404 µg and 402 µg and 395 µg | amount in inhaler ([2]; Example 4 blend): 198 µg and 165 µg and 206 µg | MMAD ([2]; Example 4 blend): 3.9 μm and 4.1 μm | MMAD [2, 9]: 4.0 μm | MMAD ([2]; Example 4 blend, mean): 4.0 μm | amount in ACI ([2]; Example 4 blend): 207 µg and 237 µg and 189 µg | amount in ACI ([2]; Example 4 blend, mean): 211 µg | FPF [2, 9]: 22% | FPD ([2]; Example 4 blend, mean): 46.4 µg | FPF ([2]; Example 4 blend, mean): 21.9% | GSD ([2]; Example 4 blend, mean): 1.4 | Total recovered ([2]; Example 4 blend, mean): 400 µg | amount in inhaler ([2]; Example 4 blend, mean): 189 µg | DU based on nominal dose, % (Device + Capsule) ([3]; Example 4 blend): 44.5% | DU based on nominal dose, % (printed in Adapter + Filter column) ([3]; Example 4 blend): 55.5% | DU based on total recovered, % (Device + Capsule) ([3]; Example 4 blend): 44.5% | DU based on total recovered, % (printed in Adapter + Filter column) ([3]; Example 4 blend): 55.5% | Total recovered [3, 10]: 397.04 µg and 394.77 µg and 399.78 µg | Total recovered [3, 11]: 408.74 µg and 407.23 µg | Total recovered [3, 12]: 394.15 µg and 396.73 µg | amount in Device + Capsule [3, 10]: 179.94 µg and 178.36 µg and 177.83 µg | amount in Device + Capsule [3, 11]: 165.97 µg and 165.37 µg | amount in Device + Capsule [3, 12]: 187.90 µg and 189.44 µg
